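A five-concentration, 48-hour dose response in 96-well plates underlies each endpoint, interpolated linearly between surrounding concentrations. TGI is the concentration that stops growth completely.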 Where a SMILES comes first, the peptide text is derived from it. [ ]: non-standard residue; d: D form. The star is where a group is joined. AllylGly = C=CC[CH](N)C(=O)O; Boc = CC(C)(C)OC(=O)*; OtBu = CC(C)(C)O*
Key:
Assay in all cases: NCI-60 cell line screen, 48 h
[1] = tested on: HS 578T breast
[2] = tested on: HT29 colon
[3] = tested on: NCI-H226 lung
[4] = tested on: NCI-H460 lung
[5] = tested on: NCI-H522 lung
[6] = tested on: OVCAR-3 ovarian
[7] = tested on: RPMI-8226 leukemia
[8] = tested on: SF-295 CNS
[9] = tested on: T-47D breast
[10] = tested on: UACC-62 melanoma

Structure (SMILES)	TGI [1]	TGI [2]	TGI [3]	TGI [4]	TGI [5]	TGI [6]	TGI [7]	TGI [8]	TGI [9]	TGI [10]
CC(C)C1(C)N=C(C(F)(F)F)c2cc(C(=O)C(F)(F)F)c3ccccc3c2N1 (centres undefined)	11 µM	13.5 µM	30.4 µM	14.6 µM	7.16 µM	10.6 µM	> 27 µM	11.8 µM	11.4 µM	15.3 µM
CCc1n[nH]c(=O)n1/N=C/c1ccccc1Cl	10.2 µM	> 100 µM	> 100 µM	> 100 µM	> 100 µM	> 100 µM	> 100 µM	> 100 µM	> 100 µM	> 100 µM
CC(C)(C)N(Cc1ccc2c(c1)OCO2)C(=O)/C=C\S(=O)c1ccccc1 (centres undefined)	6.36 µM	12.9 µM	11.2 µM	16.9 µM	2.14 µM	7.4 µM	9.54 µM	22.9 µM	14.3 µM	13.6 µM
COCC1OC(OC2C3=C(C(C)C)CCC3(C)/C=C3\C(CCC3(O)COC)C(C)C2O)C(O)C2OC3OC12OC3(C)C1CO1 (centres undefined)	> 100 µM	> 100 µM	43.1 µM	> 100 µM	82.4 µM	> 100 µM	> 100 µM	> 100 µM	> 100 µM	> 100 µM
CCOC(=O)CCC(NC(=O)c1ccc(Oc2nc3ccc(C(F)(F)F)cc3nc2-c2ccccc2)cc1)C(=O)OCC (centres undefined)	9.34 µM	> 75.2 µM	17.6 µM	> 100 µM	> 100 µM	> 100 µM	> 100 µM	> 71.6 µM	> 100 µM	> 100 µM
CCNC1(c2cccc(C)c2)OC(C)(C)c2cccc3cccc1c23 (centres undefined)	44.3 µM	27.8 µM	39 µM	30 µM	29.6 µM	33.2 µM	15.8 µM	35.2 µM	> 100 µM	31 µM
COc1ccc(C2SCC(=O)N2c2ccc(-n3c(-c4ccccc4)nc4ccccc4c3=O)cc2)cc1OC (centres undefined)	> 100 µM	> 100 µM	> 100 µM	> 100 µM	> 100 µM	> 100 µM	> 100 µM	> 100 µM	> 100 µM	> 100 µM
O=[N+]([O-])c1cccc2nc3ccccc3c(NCCc3cccc[n+]3[O-])c12	0.299 µM	0.0628 µM	0.562 µM	0.174 µM	0.157 µM	0.11 µM	0.0679 µM	0.266 µM	0.852 µM	0.211 µM
Cn1c(=O)cc(NCc2ccc(Cl)cc2)[nH]c1=O	61.3 µM	> 100 µM	> 100 µM	> 100 µM	> 100 µM	> 100 µM	> 100 µM	> 100 µM	> 100 µM	> 100 µM
COc1ccc(/C=C2\C[C@H]3[C@@H]4CCC5=C[C@@H](N6CCCC6)CC[C@]5(C)[C@H]4CC[C@]3(C)[C@H]2O)cc1	8.66 µM	3.15 µM	10.9 µM	8.04 µM	7.36 µM	8.26 µM	> 29.2 µM	5.52 µM	14.1 µM	3.28 µM
COC(=O)C1(Cc2ccc3c(c2)CCC3)Cc2ccc3c(c2C1O)CCC3 (centres undefined)	42.1 µM	31.6 µM	45 µM	54.4 µM	25.6 µM	27.7 µM	59.4 µM	42.4 µM	33 µM	32.9 µM
N#Cc1c(-c2ccc([N+](=O)[O-])cc2)cc(-c2ccc(Nc3ccnc4cc(C(F)(F)F)ccc34)cc2)nc1N	66.1 µM	34.2 µM	> 70.1 µM	> 66.5 µM	> 100 µM	29.3 µM	> 54.5 µM	37.6 µM	28.8 µM	> 100 µM
COc1ccc(N=C(C)c2ccncc2)cc1	> 100 µM	> 100 µM	> 100 µM	> 100 µM	> 100 µM	> 100 µM	> 100 µM	> 100 µM	> 100 µM	> 100 µM
Cc1ccc(S(=O)(=O)NN=C2CCCCCCCCCCC2)cc1	> 100 µM	> 100 µM	> 100 µM	> 100 µM	> 100 µM	> 100 µM	> 100 µM	> 100 µM	> 100 µM	> 100 µM
CCOc1ccc(/C(O)=C/c2nc3ccccc3nc2/C=C(\O)c2ccc(OCC)cc2)cc1	> 100 µM	> 100 µM	> 100 µM	> 100 µM	> 100 µM	> 100 µM	> 100 µM	> 100 µM	> 100 µM	> 100 µM
COc1cc(CCCOC(=O)/C=C/c2ccc(O)c(O)c2)cc(O)c1O	> 100 µM	98.7 µM	> 100 µM	> 100 µM	29.2 µM	> 100 µM	> 100 µM	> 100 µM	74.6 µM	85.1 µM

Structure (SMILES)	TGI [1]	TGI [2]	TGI [3]	TGI [4]	TGI [5]	TGI [6]	TGI [7]	TGI [8]	TGI [9]	TGI [10]
CC1(C2(C)OC(=O)c3ccccc32)OC(=O)c2ccccc21 (centres undefined)	> 100 µM	> 100 µM	> 100 µM	> 100 µM	> 100 µM	> 100 µM	> 100 µM	> 100 µM	> 100 µM	> 100 µM
C=CCC(NC(=O)C(CC(=O)OC(C)(C)C)NC(=O)OC(C)(C)C)C(=O)OC (centres undefined) (Boc-Asp(OtBu)-[AllylGly]-OMe; configuration not given here)	> 100 µM	> 100 µM	> 100 µM	> 100 µM	> 100 µM	61.4 µM	> 84.6 µM	> 100 µM	> 100 µM	> 100 µM
N#CCCN(CCC#N)c1ccc(C(N=Nc2ccccc2)=Nc2ccccc2)cc1	> 100 µM	> 100 µM	> 100 µM	> 100 µM	> 100 µM	> 100 µM	> 100 µM	> 100 µM	> 100 µM	> 100 µM
C[C@H](Nc1c(O)c2c(c(O)c1Cl)C(=O)C=CC2=O)C(=O)Nc1ccc([N+](=O)[O-])cc1	> 10 µM	8.57 µM	6.84 µM	6.29 µM	6.65 µM	2.75 µM	> 10 µM	7.54 µM	> 10 µM	6.16 µM
O=c1[nH]c(=O)n(C2CC(O)C(CO)O2)cc1OCCCc1ccccc1 (centres undefined)	> 100 µM	> 100 µM	> 100 µM	> 100 µM	> 100 µM	> 100 µM	> 100 µM	> 100 µM	> 100 µM	> 100 µM
CC1=C2c3c(C)ccc4ccc(C)c(c34)C2(O)C(C)C1=O (centres undefined)	> 100 µM	> 100 µM	> 100 µM	> 100 µM	> 100 µM	> 100 µM	> 100 µM		> 100 µM	> 100 µM
CN(NC(=O)CCCl)C1=NCCN1	> 100 µM	> 100 µM	> 100 µM	> 100 µM	> 100 µM	> 100 µM	> 100 µM	> 100 µM	> 100 µM	> 100 µM
Cc1cccc2c1Oc1ccccc1C2NC(=O)c1ccc([N+](=O)[O-])cc1 (centres undefined)	82.6 µM	> 100 µM	63.9 µM	> 100 µM	> 100 µM	> 100 µM	> 100 µM	> 100 µM	> 100 µM	> 100 µM
O=C(O)C1CCCN1Cc1cc2ccccc2c2ccccc12 (centres undefined)	> 100 µM	> 100 µM	> 100 µM	> 100 µM	> 100 µM	> 100 µM	> 100 µM	> 100 µM	> 100 µM	> 100 µM
O=C(NNC(=S)Nc1ccccc1)c1ccccc1Nc1ccccc1C(=O)NNC(=S)Nc1ccccc1	74.9 µM	76.6 µM	77.9 µM	49 µM	46 µM	38.4 µM	> 100 µM	57.6 µM	> 100 µM	26.9 µM
CC1(C)N=C(C(N)=O)c2ncn(-c3ccccc3)c2N1	> 100 µM	> 100 µM	> 100 µM	> 100 µM	> 100 µM	> 100 µM	> 100 µM	> 100 µM	> 100 µM	> 100 µM
Cc1c(CCOC=O)c(=O)[nH]c2nncn12	> 100 µM	> 100 µM	> 100 µM	> 100 µM	> 100 µM	> 100 µM	> 100 µM	> 100 µM	> 100 µM	> 100 µM
Clc1ccc(Oc2ccc(N=Cc3ccc(Cl)cc3Cl)cc2Cl)cc1	71.1 µM	> 100 µM	> 100 µM	> 100 µM	92 µM	> 100 µM	> 100 µM	> 100 µM	> 100 µM	> 100 µM
COc1ccc(N2C(=O)C3ON(C(C(N)=O)c4ccccc4)C(c4ccc(-c5ccccc5)cc4)C3C2=O)cc1 (centres undefined)	> 50 µM	> 50 µM	> 50 µM	> 50 µM	> 50 µM	> 50 µM	> 50 µM	> 50 µM	> 50 µM	> 50 µM
CC(C)NC(=O)CN1CCN(C2=CC(=O)c3c(O)ccc(O)c3C2=O)CC1	62.5 µM	12.3 µM	> 68.8 µM	29.1 µM	34.5 µM	6.56 µM	> 100 µM	32.6 µM	24.7 µM	13.3 µM
CC1=C2C(=O)[C@H]3[C@@H](CC=C4C[C@@H](O)CC[C@@]43C)[C@@H]2CC[C@]12O[C@@H]1C[C@H](C)CN[C@H]1[C@H]2C	> 100 µM	> 100 µM	> 61 µM	> 65 µM	> 59.6 µM	> 56 µM	> 100 µM	> 58.7 µM	> 100 µM	> 92.3 µM

Reference: PubChem BioAssay (NCI)
